Measurements as given in the RepoRT retention time repository (doi:10.1038/s41597-019-0305-1).

Assay: RP, Waters SunFire C18, 50 × 4.6 mm, 3.5 µm, 0.5 mL/min, estimated dead time 1.1 min; A: water + 0.1% formic acid; B: acetonitrile + 0.1% formic acid; gradient (min/%B) 0/5 7/100 8/100
Conditions: stereoisomer not certain

LC retention time	SMILES
7.45 min	CC(=O)C1=C(O)C=C2Oc3c(C)c(O)c(C(C)=O)c(O)c3C2(C)C1=O (stereo not drawn)
5.62 min	Cc1cc(O)c(C=O)c2c1C(=O)Oc1c(CO)c(O)c(C(=O)O)c(C)c1O2
6.82 min	CC(C)CC(NC(=O)c1ccccc1)C(=O)OCC(Cc1ccccc1)NC(=O)c1ccccc1 (stereo not drawn)
4.58 min	Cc1cc(O)cc2c1C(=O)Oc1cc3c(c(O)c1O2)C(=O)OC3
5.08 min	O=C1NC(c2ccccc2)CC(=O)N2CCCC2C(=O)NC(c2ccccc2)CC(=O)N2CCCC12 (stereo not drawn)
6.75 min	COC(=O)C(=C1OC(=O)C(c2ccccc2)=C1O)c1ccccc1OC
4.15 min	CCCc1cc(O)cc(O)c1C(=O)O
4.93 min	COc1cc(C)c2c(c1C=O)Oc1c(c(C)c(O)c3c1C(O)OC3=O)OC2=O (stereo not drawn)
5.36 min	COc1cc(O)c2c(c1)C(=O)c1cc(CO)cc(O)c1C2=O
6.34 min	Cc1cc(O)c2c(=O)c3c(C)cc(O)cc3oc2c1
3.99 min	Cc1cc(O)c(C)c(O)c1C(=O)O
4.52 min	Cc1cc(=O)c2c(O)c(C)c(O)cc2o1
7.88 min	C=C1C(=O)OC(CCCCCCCCCCCCC)C1C(=O)O (stereo not drawn)
4.01 min	Cc1cc(O)c2c(oc3cc(O)c(C(=O)O)c(C)c32)c1C(=O)O
7.65 min	COC(=O)C(Cc1ccccc1)NC(=O)C(=C1OC(=O)C(c2ccccc2)=C1O)c1ccccc1 (stereo not drawn)
7.28 min	CCCCCc1cc(OC(=O)c2c(O)cc(OC)cc2CC(=O)CCC)cc(O)c1C(=O)O
6.23 min	COc1cc(C)c2c(c1C)Oc1c(cc(O)c(C(=O)O)c1C)OC2=O
7.74 min	COC(=O)c1c(C)cc(OC(=O)c2c(C)cc(OC(=O)c3c(C)cc(OC)cc3O)cc2O)cc1O
4.75 min	COc1cc(O)c2c(c1)C(=O)c1c(O)c(C)cc(O)c1C2=O

LC retention time	SMILES
3.41 min	Cc1cc(O)cc(O)c1C(=O)O
4.52 min	Cc1cc(OC(=O)c2c(C)cc(O)cc2O)cc(O)c1C(=O)OCC(O)C(O)CO (stereo not drawn)
5.63 min	Cc1cc(O)cc(O)c1C(=O)Oc1cc(C)c(C(=O)Oc2c(O)cc(O)c(C(=O)O)c2C)c(O)c1
4.41 min	COC1=CC(=O)c2c(O)c3c(c(O)c2C1=O)CC(C)OC3=O (stereo not drawn)
2.35 min	COc1cc(O)cc(C)c1C(=O)O
6.94 min	COc1cc(C)c2c(=O)c3c(O)cc(OC)cc3oc2c1
7.83 min	CCCc1cc(OC)cc(O)c1C(=O)Oc1c(OC)cc(CCC)c(C(=O)O)c1O
6.71 min	COC(=O)C(=C1OC(=O)C(c2ccc(OC)cc2)=C1O)c1ccccc1
5.3 min	Cc1cc(O)c(C=O)c2c1C(=O)Oc1c(C)c(O)c3c(c1O2)C(O)OC3=O (stereo not drawn)
6.93 min	CC1=C(C(=O)O)C(CCCCCCCCCCCCC(C)CO)OC1=O (stereo not drawn)
7.08 min	COC12CC(=O)C(C(C)=O)=C(O)C1(C)c1c(O)c(C)c(O)c(C(C)=O)c1O2 (stereo not drawn)
6.35 min	COc1cc(C)c(C(=O)Oc2cc(C)c(C(=O)O)c(O)c2C)c(O)c1C=O
7.13 min	CCCCCC(=O)Cc1cc(O)cc2c1C(=O)Oc1cc(O)c(C(=O)O)c(CCCCC)c1O2
7.33 min	CCCc1cc(OC(=O)c2c(O)cc(OC)cc2CCC)cc(O)c1C(=O)O
7.36 min	CCCCCc1cc(OC)c(O)c2c1C(=O)Oc1cc(O)c(C(=O)O)c(CCCCC)c1O2
7.09 min	COc1cc(C)c(C(=O)Oc2cc(C)c(C(=O)O)c(O)c2C)c(OC)c1C
7.14 min	COC(=O)c1c(C)cc(OC(=O)c2c(C)cc(O)c(C=O)c2O)c(C)c1O
6.95 min	CCCCCCCCCCC1CC(C(=O)O)C(C)C(=O)O1 (stereo not drawn)
5.48 min	COC(=O)c1c(C)cc(O)c(C=O)c1O
